From US6841519B1, “Isoxazoline derivatives and herbicides containing the same as the active ingredient” (Kumiai Chemical Industry Co., Ltd., priority 1999, dated 2005) come the findings set out here.

Holding throughout (assay type): in vivo
For assay [1], the system named is Echinochloa oryzicola Vasing. (Eo). Put plainly: Test for herbicidal effect by paddy field soil treatment (Test Example 1). Conditions: application amount (active ingredient) 100 g/10 a, examined at the 21st day from the treatment, index per Table 40. Here is the method:
<Test Example 1> Test For Herbicidal Effect By Paddy Field Soil Treatment A paddy field soil was filled in a plastic pot of 100 cm^2 and subjected to puddling. Then, seeds of Echinochloa oryzicola Vasing. (Eo) were sowed and water was filled in a depth of 3 cm. Next day, wettable powders produced in accordance with the Formulation 1 were diluted with water and dropped on the water surface. The application amount of each wettable powder was 100 g per 10 ares in terms of the active ingredient. Then, breeding was made in a greenhouse, and the herbicidal effect of each wettable powder was examined at the 21st day from the treatment in accordance with the standard shown in Table 40. [table]

The subject of assay [2] is Echinochloa crus-galli (L.) Beauv. var. crusgall (Ec). Put plainly: Test for herbicidal effect by upland field soil treatment (Test Example 2), Ec. Here is the method:
(§1) [table] <Test Example 2> Test For Herbicidal Effect By Upland Field Soil Treatment An upland field soil was filed in a plastic pot of 80 cm^2. Seeds of Echinochloa crus-galli (L.) Beauv. var. crusgall (Ec) and Setaria viridis (L.) Beauv. (Se) were sowed, followed by covering with the same soil. Wettable powders produced in accordance with the Formulation 1 were diluted with water and sprayed uniformly: on the soil surface using a small sprayer, in an amount of 100 liters per 10 ares so that the amount of each active ingredient became 100 g per 10 ares. Then, breeding was made in a greenhouse, and the herbicidal effect of each wettable powder was examined at the 21st day from the treatment in accordance with the standard shown in Table 40.

The test system of assay [3] is Echinochloa crus-galli (L.) Beauv. var. crusgalli (Ec). Put plainly: Test for herbicidal effect by upland foliage treatment (Test Example 3). The following applies: 100 g/10 a active ingredient, examined at 14th day. The procedure: Test For Herbicidal Effect By Upland Foliage Treatment
An upland field soil was filed in a plastic pot of 80 cm^2. Seeds of Echinochloa crus-galli (L.) Beauv. var. crusgalli (Ec) were sowed. Breeding was made in a greenhouse for 2 weeks. Wettable powders produced in accordance with the Formulation 1 were diluted with water and sprayed on the whole foliage of plants from above the plants using a small sprayer in an amount of 100 liters per 10 ares so that the amount of each active ingredient became 100 g per 10 ares. Then, breeding was made in the greenhouse, and the herbicidal effect of each wettable powder was examined at the 14th day from the treatment in accordance with the standard shown in Table 40.

In assay [4] the test system is Setaria viridis (L.) Beauv. (Se). Put plainly: Test for herbicidal effect by upland field soil treatment (Test Example 2), Se. Here is the method:
as §1

Where [5] appears, read: 100 g/10 a active ingredient, examined at 21st day.
Where [6] appears, read: application amount (active ingredient) 100 g/10 a, examined at the 21st day from the treatment, index per Table 40.

As to `CCOc1cccc(C)c1CS(=O)(=O)C1=NOC(C)(C)C1` [Compound 1-602], in assay [1], the “Herbicidal effect to Eo” value is on record as 5 (A herbicidal effect or phytotoxicity of 90% or more). The entries for the “Herbicidal effect to Ec” value in assay [2] (setting [5]) and in assay [3] were 5 (A herbicidal effect or phytotoxicity of 90% or more) and 4 (A herbicidal effect or phytotoxicity of 70% to less than 90%), respectively. Moreover, in assay [4] (setting [5]), the “Herbicidal effect to Se” value is 5 (A herbicidal effect or phytotoxicity of 90% or more).

Regarding `Cc1cccc(Cl)c1CS(=O)(=O)C1=NOC(C)(C)C1` [Compound 1-560], the “Herbicidal effect to Eo” value in assay [1] is 5 (A herbicidal effect or phytotoxicity of 90% or more). Further, the “Herbicidal effect to Ec” value in assay [2] (setting [5]) is reported as 5 (A herbicidal effect or phytotoxicity of 90% or more); in assay [3], 4 (A herbicidal effect or phytotoxicity of 70% to less than 90%). Besides, in assay [4] (setting [5]), the “Herbicidal effect to Se” value was 5 (A herbicidal effect or phytotoxicity of 90% or more).

`CC1(C)CC(S(=O)(=O)Cc2c(F)cccc2Cl)=NO1` [Compound 1-494]: the “Herbicidal effect to Eo” value in assay [1] is recorded as 5 (A herbicidal effect or phytotoxicity of 90% or more). For the same molecule, the “Herbicidal effect to Ec” value in assay [2] (setting [6]) and in assay [3] was 5 (A herbicidal effect or phytotoxicity of 90% or more) each time. In addition, the “Herbicidal effect to Se” value in assay [4] (setting [6]) is reported as 5 (A herbicidal effect or phytotoxicity of 90% or more).

As for `Cc1ccc([N+](=O)[O-])c(CS(=O)(=O)C2=NOC(C)(C)C2)c1` [Compound 1-540], in assay [1], the “Herbicidal effect to Eo” value is 5 (A herbicidal effect or phytotoxicity of 90% or more). The “Herbicidal effect to Ec” value in assay [2] (setting [5]) and in assay [3] was 5 (A herbicidal effect or phytotoxicity of 90% or more) throughout. The “Herbicidal effect to Se” value in assay [4] (setting [5]) was 5 (A herbicidal effect or phytotoxicity of 90% or more).

On to `CC1(C)CC(S(=O)(=O)Cc2cc(Br)cc(Br)c2)=NO1` [Compound 1-545], for which, in assay [1], the “Herbicidal effect to Eo” value was 5 (A herbicidal effect or phytotoxicity of 90% or more). The “Herbicidal effect to Ec” value in assay [2] (setting [5]) and in assay [3] was 5 (A herbicidal effect or phytotoxicity of 90% or more) each time. Also, the “Herbicidal effect to Se” value in assay [4] (setting [5]) is 5 (A herbicidal effect or phytotoxicity of 90% or more).

As to `CCC1(C)CC([S+]([O-])Cc2c(F)cccc2F)=NO1` (stereo not drawn) [Compound 1-199, 5-ethyl-3-(2,6-difluorobenzylsulfinyl)-5-methyl-2-isoxazoline], the “Herbicidal effect to Eo” value in assay [1] was 5 (A herbicidal effect or phytotoxicity of 90% or more). Also, the “Herbicidal effect to Ec” value is listed as 5 (A herbicidal effect or phytotoxicity of 90% or more) in assay [2] (setting [6]) and 4 (A herbicidal effect or phytotoxicity of 70% to less than 90%) in assay [3]. Also, the “Herbicidal effect to Se” value in assay [4] (setting [6]) is 5 (A herbicidal effect or phytotoxicity of 90% or more).

With `CC1(C)CC(S(=O)(=O)Cc2cc(C(F)(F)F)cc(C(F)(F)F)c2)=NO1` [Compound 1-543], the “Herbicidal effect to Eo” value in assay [1] is 5 (A herbicidal effect or phytotoxicity of 90% or more). For the same molecule, the figures for the “Herbicidal effect to Ec” value in assay [2] (setting [5]) and in assay [3] were 5 (A herbicidal effect or phytotoxicity of 90% or more) and 4 (A herbicidal effect or phytotoxicity of 70% to less than 90%), respectively. Further, the “Herbicidal effect to Se” value in assay [4] (setting [5]) is listed as 5 (A herbicidal effect or phytotoxicity of 90% or more).

As for `COCC1(C)CC(S(=O)(=O)Cc2c(F)cccc2F)=NO1` (stereo not drawn) [Compound 1-397], the “Herbicidal effect to Eo” value in assay [1] is reported as 5 (A herbicidal effect or phytotoxicity of 90% or more). The “Herbicidal effect to Ec” value in assay [3] was 4 (A herbicidal effect or phytotoxicity of 70% to less than 90%).

Regarding `COc1cccc(CS(=O)(=O)C2=NOC(C)(C)C2)c1` [Compound 1-41], in assay [1], the “Herbicidal effect to Eo” value is 5 (A herbicidal effect or phytotoxicity of 90% or more). In addition, the “Herbicidal effect to Ec” value in assay [2] (setting [6]) is 5 (A herbicidal effect or phytotoxicity of 90% or more). For the same molecule, the “Herbicidal effect to Se” value in assay [4] (setting [6]) is 5 (A herbicidal effect or phytotoxicity of 90% or more).

As to `CCCCOc1cccc(F)c1CS(=O)(=O)C1=NOC(C)(C)C1` [Compound 1-571], the “Herbicidal effect to Eo” value in assay [1] is listed as 5 (A herbicidal effect or phytotoxicity of 90% or more). For the same molecule, the “Herbicidal effect to Ec” value in assay [2] (setting [5]) and in assay [3] was 5 (A herbicidal effect or phytotoxicity of 90% or more) throughout.

For `COc1ccc(CS(=O)(=O)C2=NOC(C)(C)C2)cc1` [Compound 1-42], the “Herbicidal effect to Eo” value in assay [1] is recorded as 5 (A herbicidal effect or phytotoxicity of 90% or more). Further, the “Herbicidal effect to Ec” value in assay [2] (setting [6]) was 5 (A herbicidal effect or phytotoxicity of 90% or more). The “Herbicidal effect to Se” value in assay [4] (setting [6]) was 4 (A herbicidal effect or phytotoxicity of 70% to less than 90%).

For the molecule `COCC1(C)CC([S+]([O-])Cc2c(F)cccc2F)=NO1` (stereo not drawn) [Compound 1-396], the “Herbicidal effect to Eo” value in assay [1] is listed as 5 (A herbicidal effect or phytotoxicity of 90% or more). The “Herbicidal effect to Ec” value in assay [2] (setting [6]) is 4 (A herbicidal effect or phytotoxicity of 70% to less than 90%). Besides, in assay [4] (setting [6]), the “Herbicidal effect to Se” value is 5 (A herbicidal effect or phytotoxicity of 90% or more).

As for `CCC1(C)CC(S(=O)(=O)Cc2c(C)ccc(C)c2C)=NO1` (stereo not drawn) [Compound 1-617], the “Herbicidal effect to Eo” value in assay [1] is listed as 5 (A herbicidal effect or phytotoxicity of 90% or more). In addition, the “Herbicidal effect to Ec” value in assay [2] (setting [5]) is on record as 5 (A herbicidal effect or phytotoxicity of 90% or more). The “Herbicidal effect to Se” value in assay [4] (setting [5]) is given as 5 (A herbicidal effect or phytotoxicity of 90% or more).

Take `CCOC(=O)c1cccc(Cl)c1CS(=O)(=O)C1=NOC(C)(C)C1` [Compound 1-619]: the “Herbicidal effect to Eo” value in assay [1] is reported as 5 (A herbicidal effect or phytotoxicity of 90% or more). In assay [2] (setting [5]), the “Herbicidal effect to Ec” value is recorded as 5 (A herbicidal effect or phytotoxicity of 90% or more). The “Herbicidal effect to Se” value in assay [4] (setting [5]) is reported as 4 (A herbicidal effect or phytotoxicity of 70% to less than 90%).

For `CC1(C)CC(S(=O)(=O)Cc2ccc(F)cc2)=NO1` [Compound 1-34], the “Herbicidal effect to Eo” value in assay [1] is 5 (A herbicidal effect or phytotoxicity of 90% or more). For the same molecule, the “Herbicidal effect to Ec” value in assay [2] (setting [6]) is 5 (A herbicidal effect or phytotoxicity of 90% or more). For the same molecule, in assay [4] (setting [6]), the “Herbicidal effect to Se” value is recorded as 5 (A herbicidal effect or phytotoxicity of 90% or more).

For `CC1(C)CC(S(=O)(=O)Cc2cccc(F)c2)=NO1` [Compound 1-33], the “Herbicidal effect to Eo” value in assay [1] is reported as 5 (A herbicidal effect or phytotoxicity of 90% or more). Further, in assay [2] (setting [6]), the “Herbicidal effect to Ec” value is listed as 5 (A herbicidal effect or phytotoxicity of 90% or more). Moreover, the “Herbicidal effect to Se” value in assay [4] (setting [6]) is recorded as 5 (A herbicidal effect or phytotoxicity of 90% or more).

Consider `CCC1(C)CC(S(=O)(=O)Cc2ccc(Cl)cc2)=NO1` (stereo not drawn) [Compound 1-194], for which the “Herbicidal effect to Eo” value in assay [1] is 5 (A herbicidal effect or phytotoxicity of 90% or more). For the same molecule, the “Herbicidal effect to Ec” value in assay [2] (setting [6]) is on record as 5 (A herbicidal effect or phytotoxicity of 90% or more). In assay [4] (setting [6]), the “Herbicidal effect to Se” value is recorded as 5 (A herbicidal effect or phytotoxicity of 90% or more).

Regarding `O=S(=O)(Cc1c(F)cccc1F)C1=NOC2CCCCC12` (stereo not drawn) [Compound 1-387], the “Herbicidal effect to Eo” value in assay [1] is on record as 5 (A herbicidal effect or phytotoxicity of 90% or more). The “Herbicidal effect to Ec” value in assay [2] (setting [6]) is recorded as 5 (A herbicidal effect or phytotoxicity of 90% or more). Also, the “Herbicidal effect to Se” value in assay [4] (setting [6]) is on record as 4 (A herbicidal effect or phytotoxicity of 70% to less than 90%).

Turning to `Cc1ccc(C)c(CS(=O)(=O)C2=NOC(C)(C)C2)c1C` [Compound 1-616], the “Herbicidal effect to Eo” value in assay [1] was 5 (A herbicidal effect or phytotoxicity of 90% or more). The “Herbicidal effect to Ec” value in assay [2] (setting [5]) and in assay [3] was 5 (A herbicidal effect or phytotoxicity of 90% or more) each time.

On to `CC1(C)CC(S(=O)(=O)Cc2ccc(F)cc2C(F)(F)F)=NO1` [Compound 1-551], for which, in assay [1], the “Herbicidal effect to Eo” value is 5 (A herbicidal effect or phytotoxicity of 90% or more). Moreover, the “Herbicidal effect to Ec” value in assay [2] (setting [5]) is given as 5 (A herbicidal effect or phytotoxicity of 90% or more). The “Herbicidal effect to Se” value in assay [4] (setting [5]) is 5 (A herbicidal effect or phytotoxicity of 90% or more).

For `COC(=O)c1cccc(Cl)c1CS(=O)(=O)C1=NOC(C)(C)C1` [Compound 1-618], the “Herbicidal effect to Eo” value in assay [1] is 5 (A herbicidal effect or phytotoxicity of 90% or more). Besides, in assay [2] (setting [5]), the “Herbicidal effect to Ec” value was 5 (A herbicidal effect or phytotoxicity of 90% or more). Moreover, the “Herbicidal effect to Se” value in assay [4] (setting [5]) is recorded as 5 (A herbicidal effect or phytotoxicity of 90% or more).
